Here are results for one molecule from article PMC9476334 (Chemico-Biological Interactions, 2022).

This experiment has as its target SARS-CoV-2 spike S1 RBD / ACE2 interaction (S-RBD protein binding to ACE2) (Severe acute respiratory syndrome coronavirus 2, UniProt P0DTC2). The experiment in a line: biochemical.

As for `N=C(N)c1ccc(/N=N/Nc2ccc(C(=N)N)cc2)cc1` [DIZE], the IC50 stood at 20.6 µM. That is a double-digit micromolar value.

For orientation: IC50 means the concentration that gives 50% inhibition.
